# Test results as given in PubChem BioAssay AID328 (DTP/NCI, 2004).
# Where “and” joins values, the source holds several entries; their conditions need not be identical. Equal values may be shown once. Toxic doses and inconclusive results are not listed.
# System: BDF1 mice, P388 leukemia ip, median survival T/C
# Assay: NCI In Vivo Anticancer Drug Screen. Data for tumor model P388 Leukemia (intraperitoneal) in B6D2F1 (BDF1) mice
# Details: endpoint: median survival time, higher = longer survival
# Procedure, shortened: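 Vehicle-dosed animals serve as the reference; survival of compound-dosed, tumour-implanted mice is divided by it.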
# [1] = dose: 100.0 mg/kg/injection, schedule: Q04DX003 (ip), vehicle: saline with Tween-80
# [2] = dose: 200.0 mg/kg/injection, schedule: Q04DX003 (ip), vehicle: saline with Tween-80
# [3] = dose: 100.0 mg/kg/injection, schedule: Q01DX009 (ip), vehicle: saline with Tween-80
# [4] = dose: 200.0 mg/kg/injection, schedule: Q01DX009 (ip), vehicle: saline with Tween-80
# [5] = dose: 400.0 mg/kg/injection, schedule: Q01DX009 (ip), vehicle: saline with Tween-80
# [6] = dose: 50.0 mg/kg/injection, schedule: Q01DX009 (ip), vehicle: saline with Tween-80
# [7] = dose: 100.0 mg/kg/injection, schedule: Q01DX001 (ip), vehicle: Klucel (hydroxypropylcellulose) (HPC)
# [8] = dose: 200.0 mg/kg/injection, schedule: Q01DX001 (ip), vehicle: Klucel (hydroxypropylcellulose) (HPC)
# [9] = dose: 200.0 mg/kg/injection, schedule: Q04DX003 (ip), vehicle: Klucel (hydroxypropylcellulose) (HPC)
# [10] = dose: 400.0 mg/kg/injection, schedule: Q04DX003 (ip), vehicle: Klucel (hydroxypropylcellulose) (HPC)
# [11] = dose: 400.0 mg/kg/injection, schedule: Q04DX003 (ip), vehicle: saline with Tween-80
# [12] = dose: 6.25 mg/kg/injection, schedule: Q01DX009 (ip), vehicle: saline
# [13] = dose: 12.5 mg/kg/injection, schedule: Q01DX009 (ip), vehicle: saline
# [14] = dose: 25.0 mg/kg/injection, schedule: Q01DX009 (ip), vehicle: saline
smiles,measurement,setting,value
CC(C)(C)[Si](C)(C)OC(=O)NCCCl,T/C,"dose: 100.0 mg/kg/injection, schedule: Q04DX002 (ip), vehicle: saline with Tween-80",100 % of control
same,T/C,"dose: 200.0 mg/kg/injection, schedule: Q04DX002 (ip), vehicle: saline with Tween-80",109 % of control
same,T/C,"dose: 400.0 mg/kg/injection, schedule: Q04DX002 (ip), vehicle: saline with Tween-80",118 % of control
COC(=O)CSc1ncc2cnccn12,T/C,"dose: 100.0 mg/kg/injection, schedule: Q04DX003 (ip), vehicle: water",109 % of control
same,T/C,"dose: 200.0 mg/kg/injection, schedule: Q04DX003 (ip), vehicle: water",100 % of control
same,T/C,"dose: 400.0 mg/kg/injection, schedule: Q04DX003 (ip), vehicle: water",109 % of control
CCN(C(=O)c1ccc(C(=O)N(CC)c2ccccc2)cc1)c1ccccc1,T/C,[1],100 % of control
same,T/C,[2],91 % of control
O=C(Nc1ccc([N+](=O)[O-])cc1Cl)N(CCO)C1CCCCC1,T/C,[3],105 % of control
same,T/C,[4],100 % of control
same,T/C,[5],90 % of control
CC1=NC2=NC(CCCC(=O)OCc3ccccc3)=NC3=CC=CC(=N1)N32,T/C,"dose: 25.0 mg/kg/injection, schedule: Q01DX009 (ip), vehicle: saline with Tween-80",108 % of control
same,T/C,[6],110 % of control
same,T/C,[3],101 % of control
O=C(Nc1cc(Cl)cc(Cl)c1)C(Cl)Cl,T/C,"dose: 50.0 mg/kg/injection, schedule: Q01DX010 (ip), vehicle: carboxymethylcellulose (CMC)",95 % of control
same,T/C,"dose: 100.0 mg/kg/injection, schedule: Q01DX010 (ip), vehicle: carboxymethylcellulose (CMC)",110 % of control
same,T/C,"dose: 200.0 mg/kg/injection, schedule: Q01DX010 (ip), vehicle: carboxymethylcellulose (CMC)",105 % of control
Cc1ccc2ccccc2c1NCCC(=O)O,T/C,[7],103 % of control
same,T/C,[8],96 % of control
same,T/C,"dose: 400.0 mg/kg/injection, schedule: Q01DX001 (ip), vehicle: Klucel (hydroxypropylcellulose) (HPC)",100 % of control
COc1ccc2nccc(C=O)c2c1,T/C,[3],116 % of control
same,T/C,[4],114 % of control
same,T/C,[5],117 % of control
CNC(=O)NNc1ccccc1,T/C,[9],115 % of control
same,T/C,[10],115 % of control
COC(=O)NC1CCCCC1I (stereo unspecified),T/C,[3],100 % of control
same,T/C,[1],100 % of control
same,T/C,[4],100 % of control
same,T/C,[2],100 % of control
same,T/C,[5],100 % of control
same,T/C,[11],109 % of control
O=C1N(c2ccccc2)CCC12CCNCC2,T/C,"dose: 50.0 mg/kg/injection, schedule: Q01DX009 (ip), vehicle: saline",94 % of control
same,T/C,"dose: 100.0 mg/kg/injection, schedule: Q01DX009 (ip), vehicle: saline",94 % of control
COC(=O)C(Sc1ccccc1N)C1SC(=S)N(Cc2ccccc2)C1=O (stereo unspecified),T/C,[6],95 % of control
same,T/C,[3],104 % of control
same,T/C,[4],113 % of control
CCO/C=C1\SC(=S)N(c2ccccc2C)C1=O,T/C,"dose: 8.8 mg/kg/injection, schedule: Q04DX003 (ip), vehicle: saline with Tween-80",100 % of control
same,T/C,"dose: 13.2 mg/kg/injection, schedule: Q04DX003 (ip), vehicle: saline with Tween-80",104 % of control
same,T/C,"dose: 20.0 mg/kg/injection, schedule: Q04DX003 (ip), vehicle: saline with Tween-80",100 % of control
same,T/C,"dose: 25.0 mg/kg/injection, schedule: Q01DX009 (ip), vehicle: Klucel (hydroxypropylcellulose) (HPC)",101 % of control
same,T/C,"dose: 30.0 mg/kg/injection, schedule: Q04DX003 (ip), vehicle: saline with Tween-80",104 % of control
same,T/C,"dose: 88.0 mg/kg/injection, schedule: Q04DX003 (ip), vehicle: saline with Tween-80",122 % of control
same,T/C,"dose: 300.0 mg/kg/injection, schedule: Q04DX003 (ip), vehicle: saline with Tween-80",163 % of control
CC(=O)CC(C)=O.CC(=O)CC(C)=O.O=N[O-].O=N[O-].[Co],T/C,"dose: 25.0 mg/kg/injection, schedule: Q04DX002 (ip), vehicle: saline with Tween-80",106 % of control
same,T/C,"dose: 50.0 mg/kg/injection, schedule: Q04DX002 (ip), vehicle: saline with Tween-80",109 % of control
O=c1oc2ccccc2c2c1Cc1c(oc3ccc4ccccc4c3c1=O)O2,T/C,[6],91 % of control
same,T/C,[3],95 % of control
same,T/C,[4],92 % of control
COc1cc(/C(C)=N\O)ccc1O,T/C,"dose: 100.0 mg/kg/injection, schedule: Q01DX001 (ip), vehicle: other",100 % of control
same,T/C,"dose: 200.0 mg/kg/injection, schedule: Q01DX001 (ip), vehicle: other",100 % of control
same,T/C,"dose: 400.0 mg/kg/injection, schedule: Q01DX001 (ip), vehicle: other",100 % of control
Clc1ccc2c(Cl)ncnc2c1,T/C,[1],104 % of control
same,T/C,[2],109 % of control
Cc1c2oc3c(C)ccc(C(=O)NC4C(=O)NC(C(C)C)C(=O)N5CCCC5C(=O)N(C)CC(=O)N(C)C(C(C)C)C(=O)OC4C)c3nc-2c(C(=O)NC2C(=O)NC(C(C)C)C(=O)N3CCCC3C(=O)N(C)CC(=O)N(C)C(C(C)C)C(=O)OC2C)cc1=O (stereo unspecified),T/C,"dose: 0.24 mg/kg/injection, schedule: Q01DX009 (ip), vehicle: saline + alcohol",97 % of control
same,T/C,"dose: 0.34 mg/kg/injection, schedule: Q01DX009 (ip), vehicle: saline + alcohol",101 % of control
same,T/C,"dose: 0.49 mg/kg/injection, schedule: Q01DX009 (ip), vehicle: saline + alcohol",100 % of control
same,T/C,"dose: 0.7 mg/kg/injection, schedule: Q01DX009 (ip), vehicle: saline + alcohol",112 % of control
same,T/C,"dose: 1.0 mg/kg/injection, schedule: Q01DX009 (ip), vehicle: saline + alcohol",106 % of control
same,T/C,"dose: 1.17 mg/kg/injection, schedule: Q04DX003 (ip), vehicle: saline + alcohol",107 % of control and 124 % of control
same,T/C,"dose: 1.7 mg/kg/injection, schedule: Q04DX003 (ip), vehicle: saline + alcohol",104 % of control
same,T/C,"dose: 1.94 mg/kg/injection, schedule: Q04DX003 (ip), vehicle: saline + alcohol",107 % of control
same,T/C,"dose: 2.4 mg/kg/injection, schedule: Q01DX001 (ip), vehicle: saline + alcohol",112 % of control
same,T/C,"dose: 3.4 mg/kg/injection, schedule: Q01DX001 (ip), vehicle: saline + alcohol",113 % of control
same,T/C,"dose: 4.9 mg/kg/injection, schedule: Q04DX003 (ip), vehicle: saline + alcohol",150 % of control
same,T/C,"dose: 5.4 mg/kg/injection, schedule: Q04DX003 (ip), vehicle: saline + alcohol",168 % of control
same,T/C,"dose: 7.0 mg/kg/injection, schedule: Q04DX003 (ip), vehicle: saline + alcohol",169 % of control
same,T/C,"dose: 9.0 mg/kg/injection, schedule: Q04DX003 (ip), vehicle: saline + alcohol",159 % of control and 176 % of control
same,T/C,"dose: 10.0 mg/kg/injection, schedule: Q01DX001 (ip), vehicle: saline + alcohol",153 % of control
same,T/C,"dose: 15.0 mg/kg/injection, schedule: Q04DX003 (ip), vehicle: saline + alcohol",183 % of control and 193 % of control
O=C1c2ccccc2C2N1CCCN2C(=O)c1sc2ccccc2c1Cl (stereo unspecified),T/C,[6],88 % of control
same,T/C,[3],86 % of control
same,T/C,[4],94 % of control
O=C(Nc1ccccc1)N(C(=O)C(F)(F)F)c1ccccc1,T/C,[6],95 % of control
same,T/C,[3],92 % of control
same,T/C,[4],90 % of control
CC(C)C1=CC2=CC[C@@H]3[C@](C)(CCC[C@@]3(C)C(=O)O)[C@H]2CC1,T/C,[3],100 % of control
same,T/C,[1],100 % of control
same,T/C,[4],100 % of control
same,T/C,[2],100 % of control
same,T/C,[5],100 % of control
same,T/C,[11],100 % of control
CCOC(=O)c1cnn(-c2ccccc2)c1C,T/C,"dose: 100.0 mg/kg/injection, schedule: Q01DX009 (ip), vehicle: Klucel (hydroxypropylcellulose) (HPC)",104 % of control
same,T/C,"dose: 100.0 mg/kg/injection, schedule: Q04DX003 (ip), vehicle: Klucel (hydroxypropylcellulose) (HPC)",104 % of control
same,T/C,"dose: 200.0 mg/kg/injection, schedule: Q01DX009 (ip), vehicle: Klucel (hydroxypropylcellulose) (HPC)",100 % of control
same,T/C,[9],87 % of control
same,T/C,"dose: 400.0 mg/kg/injection, schedule: Q01DX009 (ip), vehicle: Klucel (hydroxypropylcellulose) (HPC)",90 % of control
same,T/C,[10],104 % of control
C=CC[n+]1ccc(/C=N\NC(N)=S)c2ccccc21,T/C,[12],111 % of control
same,T/C,[13],101 % of control
same,T/C,[14],106 % of control
O=c1cc(CO)occ1O.O=c1cc(CO)occ1O.[O]=[V],T/C,[12],105 % of control
same,T/C,[13],94 % of control
same,T/C,[14],100 % of control
O=C1CSc2ccccc2N1,T/C,"dose: 50.0 mg/kg/injection, schedule: Q01DX001 (ip), vehicle: Klucel (hydroxypropylcellulose) (HPC)",109 % of control
same,T/C,[7],100 % of control
same,T/C,[8],116 % of control
